According to patent US11091471B2, “Isoxazolyl ether derivatives as GABAA α5 PAM” (Hoffmann-La Roche Inc., priority 2016, dated 2021):

Molecular target: h-GABA-A α5β3γ2 (Homo sapiens (Human), UniProt P18507+P31644)
Experiment: Two-electrode voltage clamp electrophysiology in Xenopus oocytes expressing GABAA receptors, modulation of GABA EC20 current
Format: cell-based
Method: Xenopus laevis oocytes at maturation stages V-VI were used for the expression of cloned mRNA encoding GABAA receptor subunits. Oocytes ready for RNA micro-injection were bought from Ecocyte, Castrop-Rauxel, Germany and stored in modified Barth's medium (composition in mM: NaCl 88, KCl 1, NaHCO3 2.4, HEPES 10, MgSO4 0.82, CaNO3 0.33, CaCl2 0.33, pH=7.5) at 20° C. until the experiment.
Oocytes were plated in 96-well plates to be used in an automated instrument (Robo-ocyte, MultiChannelSystems, Reutlingen, Germany) for microinjection and electrophysiological recordings. Approximately 50 nl of an aqueous solution containing the RNA transcripts for the subunits of the desired GABAA receptor was injected into each oocyte.
Electrophysiological experiments were performed on days 3 to 5 after the micro-injection of mRNA. During the experiment the oocytes were constantly superfused by a solution containing (in mM) NaCl 90, KCl 1, HEPES 5, MgCl2 1, CaCl2 1 (pH 7.4). Oocytes were impaled by two glass microelectrodes (resistance: 0.4 MΩ) which were filled with a solution containing KCl 1M+K-acetate 1.5 M and voltage-clamped to −80 mV. The recordings were performed at room temperature using the Roboocyte two-electrode voltage clamp system (Multichannelsystem). After an initial equilibration period of 1.5 min GABA was added for 1.5 min at a concentration evoking approximately 20% of a maximal current response (EC20). After another rest interval of 2.5 min GABA was again added evoking a response of similar amplitude and shape. […] Current traces were recorded at a digitization rate of 10 Hz during and shortly before and after the GABA application.
Each compound and concentration was tested on at least 3 oocytes.
For the analysis, the digitized current traces of the first and second GABA response were superimposed and, if necessary, rescaled to equal maximal amplitudes. The ratio between the two responses during the time interval of test compound application was calculated point by point. The extremum of the resulting “ratio trace” was taken as the efficacy (“Fold increase”) of the compound expressed as “% modulation of GABA EC20” (100*(Fold increase−1)).

[1] = Table 1, GABA at EC20, test compound at approx. 30 fold its Ki, Xenopus oocytes
[2] = Table 1, % modulation of GABA EC20 = 100*(Fold increase−1)
[3] = Table 2, reference compounds, % modulation of GABA EC20
[4] = Table 2, reference compounds, GABAA α5β3γ2 overexpressing oocytes

h-GABA-A α5β3γ2, sequence (P31644 32-462): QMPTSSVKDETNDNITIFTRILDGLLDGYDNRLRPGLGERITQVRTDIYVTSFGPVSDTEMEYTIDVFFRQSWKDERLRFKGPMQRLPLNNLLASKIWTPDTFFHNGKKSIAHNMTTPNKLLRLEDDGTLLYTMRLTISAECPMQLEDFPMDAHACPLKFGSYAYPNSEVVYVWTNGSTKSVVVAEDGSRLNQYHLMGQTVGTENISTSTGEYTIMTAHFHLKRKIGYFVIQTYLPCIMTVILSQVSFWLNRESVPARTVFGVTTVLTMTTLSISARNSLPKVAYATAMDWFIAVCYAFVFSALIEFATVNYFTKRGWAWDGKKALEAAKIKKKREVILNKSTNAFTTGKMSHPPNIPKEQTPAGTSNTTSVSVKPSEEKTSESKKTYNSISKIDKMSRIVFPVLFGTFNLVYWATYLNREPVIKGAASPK
h-GABA-A α5β3γ2, sequence (P28472 26-473 partner): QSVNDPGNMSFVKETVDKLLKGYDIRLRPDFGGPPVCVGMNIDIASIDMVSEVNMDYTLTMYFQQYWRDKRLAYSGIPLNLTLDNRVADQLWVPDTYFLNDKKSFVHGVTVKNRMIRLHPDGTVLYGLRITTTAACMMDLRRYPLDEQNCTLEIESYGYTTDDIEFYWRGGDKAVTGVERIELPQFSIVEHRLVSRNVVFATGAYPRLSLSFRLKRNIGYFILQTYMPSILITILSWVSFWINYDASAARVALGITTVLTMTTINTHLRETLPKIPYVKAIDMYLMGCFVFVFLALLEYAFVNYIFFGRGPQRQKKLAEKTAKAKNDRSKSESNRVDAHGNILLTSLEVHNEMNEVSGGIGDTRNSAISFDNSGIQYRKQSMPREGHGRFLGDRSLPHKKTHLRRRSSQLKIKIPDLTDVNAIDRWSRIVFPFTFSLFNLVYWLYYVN
h-GABA-A α5β3γ2, sequence (P18507 40-475): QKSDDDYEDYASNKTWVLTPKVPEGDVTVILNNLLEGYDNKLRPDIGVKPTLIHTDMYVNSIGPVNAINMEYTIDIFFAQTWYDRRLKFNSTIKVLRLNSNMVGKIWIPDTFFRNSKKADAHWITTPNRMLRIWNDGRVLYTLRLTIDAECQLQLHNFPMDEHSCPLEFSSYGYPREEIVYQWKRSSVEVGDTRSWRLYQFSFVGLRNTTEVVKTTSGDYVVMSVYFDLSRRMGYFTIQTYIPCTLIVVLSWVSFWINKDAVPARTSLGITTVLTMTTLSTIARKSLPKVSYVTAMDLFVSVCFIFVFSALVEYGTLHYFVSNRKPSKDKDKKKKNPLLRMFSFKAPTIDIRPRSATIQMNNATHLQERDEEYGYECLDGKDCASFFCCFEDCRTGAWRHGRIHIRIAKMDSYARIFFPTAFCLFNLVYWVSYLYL

SMILES	Fold increase h-GABA-A α5β3γ2 oocyte [1]	other results
CCC[C@@H](CO)NC(=O)c1ccc(OCc2c(-c3ccc(C)nc3)noc2C)nc1 [Example 4, (S)—N-(1-hydroxypentan-2-yl)-6-((5-methyl-3-(6-methylpyridin-3-yl)isoxazol-4-yl)methoxy)nicotinamide]	2.5	
Cc1ccc(-c2noc(C)c2COc2cc3c(cn2)C(=O)N(C)C3)cn1 [Example 10, 2-methyl-6-((5-methyl-3-(6-methylpyridin-3-yl)isoxazol-4-yl)methoxy)-1H-pyrrolo[3,4-c]pyridin-3(2H)-one]	1.8	
CCC[C@@H](CO)NC(=O)c1cnc(OCc2c(-c3ccc(C)nc3)noc2C)cn1 [Example 14, N-((1S)-1-(hydroxymethyl)butyl)-5-((5-methyl-3-(6-methyl-3-pyridyl)isoxazol-4-yl)methoxy)pyrazine-2-carboxamide]	2.6	
Cc1ccc(-c2noc(C)c2COc2ccc(C(N)=O)cn2)cn1 [Example 17, 6-((5-methyl-3-(6-methylpyridin-3-yl)isoxazol-4-yl)methoxy)nicotinamide]	1.6	
Cc1ccc(-c2noc(C)c2COc2ccc(C(=O)NC3CC3)nn2)cn1 [Example 26, N-cyclopropyl-6-((5-methyl-3-(6-methylpyridin-3-yl)isoxazol-4-yl)methoxy)pyridazine-3-carboxamide]	1.8	
Cc1ccc(-c2noc(C)c2COc2ccc(C(=O)NCC3(C)COC3)nn2)cn1 [Example 49, 6-((5-methyl-3-(6-methylpyridin-3-yl)isoxazol-4-yl)methoxy)-N-((3-methyloxetan-3-yl)methyl)pyridazine-3-carboxamide]	1.7	
Cc1ccc(-c2noc(C)c2COc2ccc(C(=O)N3CCC(F)(F)CC3)nn2)cn1 [Example 53, (4,4-difluoropiperidin-1-yl)(6-((5-methyl-3-(6-methylpyridin-3-yl)isoxazol-4-yl)methoxy)pyridazin-3-yl)methanone]	1.8	
Cc1ccc(-c2noc(C)c2COc2cnc(C(=O)NC3CCS(=O)(=O)CC3)cn2)cn1 [Example 72, N-(1,1-dioxothian-4-yl)-5-((5-methyl-3-(6-methyl-3-pyridyl)isoxazol-4-yl)methoxy)pyrazine-2-carboxamide]	2.3	
Cc1ccc(-c2noc(C)c2COc2cnc(C(=O)NC3COC3)cn2)cn1 [Example 77, 5-((5-methyl-3-(6-methyl-3-pyridyl)isoxazol-4-yl)methoxy)-N-(oxetan-3-yl)pyrazine-2-carboxamide]		Efficacy (GABA) % [2]: 11%
Cc1ccc(-c2noc(C)c2COc2ccc(C(=O)N[C@@]3(C)CCOC3)nn2)cn1 [Example 81, (S)-6-((5-methyl-3-(6-methylpyridin-3-yl)isoxazol-4-yl)methoxy)-N-(3-methyltetrahydrofuran-3-yl)pyridazine-3-carboxamide]	1.8	
Cc1ccc(-c2noc(C)c2COc2cnc(C(=O)NC3CCC(F)(F)CC3)cn2)cn1 [Example 86, N-(4,4-difluorocyclohexyl)-5-((5-methyl-3-(6-methyl-3-pyridyl)isoxazol-4-yl)methoxy)pyrazine-2-carboxamide]	2.2	
Cc1ccc(-c2noc(C)c2COc2ccc(C(=O)N[C@H]3CCOC3)nn2)cn1 [Example 87, (S)-6-((5-methyl-3-(6-methylpyridin-3-yl)isoxazol-4-yl)methoxy)-N-(tetrahydrofuran-3-yl)pyridazine-3-carboxamide]	1.8	
Cc1ccc(-c2noc(C)c2COc2cc3c(cn2)C(=O)N(C2CCS(=O)(=O)CC2)C3)cn1 [Example 91, 2-(1,1-dioxothian-4-yl)-6-((5-methyl-3-(6-methylpyridin-3-yl)-1,2-oxazol-4-yl)methoxy)-1H-pyrrolo[3,4-c]pyridin-3-one]	2.4	
Cc1ccc(-c2noc(C)c2COc2ccc(C(=O)NC3CC4(COC4)C3)nn2)cn1 [Example 100, 6-((5-methyl-3-(6-methylpyridin-3-yl)isoxazol-4-yl)methoxy)-N-(2-oxaspiro[3.3]heptan-6-yl)pyridazine-3-carboxamide]	1.7	
Cc1ccc(-c2noc(C)c2COc2ccc(C(=O)N[C@H]3CCCOC3)nn2)cn1 [Example 103, (S)-6-((5-methyl-3-(6-methylpyridin-3-yl)isoxazol-4-yl)methoxy)-N-(tetrahydropyran-3-yl)pyridazine-3-carboxamide]		Efficacy (GABA) % [2]: 81%
Cc1ccc(-c2noc(C)c2COc2ccc(C(=O)NC3CCOCC3)cn2)nn1 [Example 108, 6-((5-methyl-3-(6-methylpyridazin-3-yl)isoxazol-4-yl)methoxy)-N-tetrahydropyran-4-yl-pyridine-3-carboxamide]	1.2	
CCc1onc(-c2ccc(C)nc2)c1COc1ccc(C(=O)NC2CCS(=O)(=O)CC2)cn1 [Example 120, N-(1,1-dioxidotetrahydro-2H-thiopyran-4-yl)-6-((5-ethyl-3-(6-methylpyridin-3-yl)isoxazol-4-yl)methoxy)pyridine-3-carboxamide]	2.6	
Cc1ccc(-c2noc(C)c2COc2ccc(C(=O)N[C@H]3CCOC[C@@H]3O)cn2)cn1 [Example 127, N-((3R,4S)-3-hydroxytetrahydropyran-4-yl)-6-((5-methyl-3-(6-methyl-3-pyridyl)isoxazol-4-yl)methoxy)pyridine-3-carboxamide]	1.5	
Cc1ncc(-c2noc(C)c2COc2ccc(C(=O)NC3CCOCC3)cn2)cc1F [Example 143, 6-((3-(5-fluoro-6-methyl-3-pyridyl)-5-methyl-isoxazol-4-yl)methoxy)-N-tetrahydropyran-4-yl-pyridine-3-carboxamide]	1.2	
Cc1ccc(-c2noc(C)c2COc2ccc(C(=O)N3C4COCC3C4)nn2)cn1 [Example 157, 3-oxa-6-azabicyclo[3.1.1]heptan-6-yl(6-((5-methyl-3-(6-methylpyridin-3-yl)isoxazol-4-yl)methoxy)pyridazin-3-yl)methanone]		Efficacy (GABA) % [2]: 76%
Cc1onc(-c2ccc(Cl)nc2)c1COc1ccc(C(=O)NC2(C)COC2)nn1 [Example 161, 6-((3-(6-chloropyridin-3-yl)-5-methylisoxazol-4-yl)methoxy)-N-(3-methyloxetan-3-yl)pyridazine-3-carboxamide]	1.6	
Cc1ccc(-c2noc(C)c2COc2ccc(C(=O)N[C@H]3C[C@H](OCC(F)F)C3)nn2)cn1 [Example 170, trans-N-3-((2,2-difluoroethoxy)cyclobutyl)-6-((5-methyl-3-(6-methylpyridin-3-yl)isoxazol-4-yl)methoxy)pyridazine-3-carboxamide]	1.6	
Cc1ccc(-c2noc(C)c2COc2ccc(C(=O)N[C@@H]3CC[C@@H](OCC(F)F)C3)nn2)cn1 [Example 191, N-((1R,3R)-3-(2,2-difluoroethoxy)cyclopentyl)-6-((5-methyl-3-(6-methylpyridin-3-yl)isoxazol-4-yl)methoxy)pyridazine-3-carboxamide]	1.6	
Cc1ncc2n1-c1ccc(Cl)cc1C(c1ccccc1F)=NC2 [Midazolam, reference compound]		potentiation of the GABA-induced current (positive control (PAM) at a maximally effective concentration): ~150%; Fold increase (positive control at a maximally effective concentration, 3-6 oocytes per 96-well plate): ~2.5
Cc1onc(-c2cccnc2)c1COc1ccc(C(=O)NC2CCOCC2)nn1 [RE-A, 6-((5-methyl-3-(3-pyridyl)isoxazol-4-yl)methoxy)-N-tetrahydropyran-4-yl-pyridazine-3-carboxamide, reference compound]		Efficacy (GABA) % [3]: −3%; Fold increase h-GABA-A α5β3γ2 oocyte [4]: 0.97
Cc1onc(-c2ccc(Cl)cn2)c1COc1ccc(C(=O)NC2CCOCC2)nn1 [RE-B, 6-((3-(5-chloro-2-pyridyl)-5-methyl-isoxazol-4-yl)methoxy)-N-tetrahydropyran-4-yl-pyridazine-3-carboxamide, reference compound]		Efficacy (GABA) % [3]: +3%
Cc1onc(-c2ccccn2)c1COc1ccc(C(=O)NC2CCOCC2)nn1 [RO-094, reference compound]		Efficacy (GABA) % [3]: −18%; Fold increase h-GABA-A α5β3γ2 oocyte [4]: 0.82
Cc1onc(-c2cccnc2)c1COc1ccc(C(=O)NC2CCOCC2)cn1 [RO-159, reference compound]		Efficacy (GABA) % [3]: −12%; Fold increase h-GABA-A α5β3γ2 oocyte [4]: 0.88
Cc1ccc(-c2noc(C)c2COc2ccc(C(=O)NC3CCOCC3)cn2)cc1 [RO-251, reference compound]		Efficacy (GABA) % [3]: −18%; Fold increase h-GABA-A α5β3γ2 oocyte [4]: 0.82
